The text below walks through data of patent US20070231334A1 (priority 2004, published 2007).

For series [1], the system named is hemorrhagic activity of B. anthracis culture supernatant (BACS). Set-up: species or system B. anthracis (delta Ames). The following applies: in vivo, sc.
The subject of a further series is B. anthracis (Sterne). Also on record: species or system Bacillus anthracis. As to conditions: in vivo.
Series [2] relates to BACS proteolytic activity. The format is biochemical, B. anthracis.
The conditions of series [3]: mouse, in vivo.

Entries after “also recorded” stand apart in the source; their conditions may differ. Like-named read-outs stand apart in the source and are kept apart here.

For the molecule `O=C(O)CN(CCN(CC(=O)O)CC(=O)O)CC(=O)O` [EDTA, ethylenediaminetetraacetic acid], the “suppression of hemorrhagic effect of BACS” value (“suppression” below) in series [1] was “effectively abrogated”.

As for `O=C(O)c1cn(C2CC2)c2cc(N3CCNCC3)c(F)cc2c1=O` [ciprofloxacin], in the series on B. anthracis (Sterne), the effectiveness of treatment entry was “ineffective”, the survival is recorded as 20% and the “survival (effectiveness)” value is given as 70%. This molecule returned a survival in the series with B. anthracis (Sterne) (ip) of 20%.

Consider `C[C@H]1c2cccc(O)c2C(=O)C2=C(O)[C@]3(O)C(=O)C(C(N)=O)=C(O)[C@@H](N(C)C)[C@@H]3[C@@H](O)[C@@H]21` [doxycycline], for which the survival in the series with B. anthracis (Sterne) (ip) worked out at 30%.

For the molecule `CC[C@@H](C)[C@@H](O)[C@H](C)C(=O)[C@H](C)/C=C(\C)C[C@H](C)[C@@H]1OC(=O)[C@H]1CC` [ebelactone B], in the series on B. anthracis (Sterne), the “effect on survival / protection” value was “did not increase survival over the effects of doxycycline alone”.

Turning to `c1cnc2c(c1)ccc1cccnc12` [phenanthroline, 1,10-phenanthroline], in series [2], the “inhibition of hydrolysis of gelatin and casein by BACS” value is “inhibited”.

Take `CC(C)C[C@H](NP(=O)(O)O[C@@H]1O[C@@H](C)[C@H](O)[C@@H](O)[C@H]1O)C(=O)N[C@@H](Cc1c[nH]c2ccccc12)C(=O)O` [phosphoramidon]: in series [2], the “inhibition of hydrolysis of gelatin and casein by BACS” value is reported as “inhibited”. In addition, the “suppression” value in series [1] is “effective; also recorded: effectively abrogated”.

B1: SBTI (protein, UniProt P01070 25-205, looked up)
Trypsin inhibitor A: DFVLDNEGNPLENGGTYYILSDITAFGGIRAAPTGNERCPLTVVQSRNELDKGIGTIISSPYRIRFIAEGHPLSLKFDSFAVIMLCVGIPTEWSVVEDLPEGPAVKIGENKDAMDGWFRLERVSDDEFNNYKLVFCPQQAEDDKCGDIGISIDHDDGTRRLVVSKNKPLVVQFQKLDKESL
As to B1, the “suppression” value in series [1] was “effectively abrogated”.

B2: thermolysin: thermolysin (EC 3.4.24.27) from Bacillus thermoproteolyticus (protein, UniProt P00800 233-548, looked up)
Thermolysin: ITGTSTVGVGRGVLGDQKNINTTYSTYYYLQDNTRGNGIFTYDAKYRTTLPGSLWADADNQFFASYDAPAVDAHYYAGVTYDYYKNVHNRLSYDGNNAAIRSSVHYSQGYNNAFWNGSQMVYGDGDGQTFIPLSGGIDVVAHELTHAVTDYTAGLIYQNESGAINEAISDIFGTLVEFYANKNPDWEIGEDVYTPGISGDSLRSMSDPAKYGDPDHYSKRYTGTQDNGGVHINSGIINKAAYLISQGGTHYGVSVVGIGRDKLGKIFYRALTQYLTPTSNFSQLRAAAVQSATDLYGSTSQEVASVKQAFDAVGVK
Consider B2, for which the “dose range in which hemorrhagic activity was detectable” value in series [3] lay in the range of 10 to 100 µg.
